Reference: patent publication US5547978A, “Derivatives of pyrrolidin-2-ylcarbonylheterocyclic compounds” (priority 1994, dated 1996)
Where two headings read alike, the source gives them in different places.

Target: T1, prolyl endopeptidase (Sus scrofa, UniProt P23687)
T1 construct: porcine kidney enzyme which was prepared according to methods of Walter and Yoshimoto et al; from tissue; host or cells: porcine kidney
Assay: Prolyl endopeptidase-inhibitory activity in vitro (porcine kidney enzyme, Z-Gly-Pro-p-nitroanilide substrate)
Assay type: biochemical
Description: A test compound (2 mg) was dissolved in DMSO (2 ml) and diluted to appropriate concentrations with DMSO. Z-Gly-Pro-p-nitroanilide (8 mg), a substrate was dissolved in dioxane (5 ml), water (27 ml) and 0.2 M phosphate buffer (pH 7.8, 40 ml). The substrate solution ([…]) was mixed with an inhibitor solution (3 ml) and followed by addition of above mentioned porcine kidney enzyme solution ([…]). Immediately after the mixing the UV absorbance at 405 nm was detected. The mixture was incubated at 37° C. for 20 min. and the UV absorbance was checked. A standard curve of absorbance (OD) vs. p-nitroaniline concentration was used to relate the absorbance to amount of substrate hydrolyzed. […] The inhibiting activity was obtained following the equation below. The IC50 value was estimated from the inhibitor concentration vs. inhibitory activity curve.
The percent inhibitory activity (%)=(ΔODc -ΔODs)/ΔODc ×100
ΔODs : ΔOD for test sample

[1] = porcine kidney enzyme, pH 7.8, 37° C., 20 min, read-out: IC50 (converted)
[2] = porcine kidney enzyme, pH 7.8, 37° C., 20 min

T1 sequence (P23687 whole entry): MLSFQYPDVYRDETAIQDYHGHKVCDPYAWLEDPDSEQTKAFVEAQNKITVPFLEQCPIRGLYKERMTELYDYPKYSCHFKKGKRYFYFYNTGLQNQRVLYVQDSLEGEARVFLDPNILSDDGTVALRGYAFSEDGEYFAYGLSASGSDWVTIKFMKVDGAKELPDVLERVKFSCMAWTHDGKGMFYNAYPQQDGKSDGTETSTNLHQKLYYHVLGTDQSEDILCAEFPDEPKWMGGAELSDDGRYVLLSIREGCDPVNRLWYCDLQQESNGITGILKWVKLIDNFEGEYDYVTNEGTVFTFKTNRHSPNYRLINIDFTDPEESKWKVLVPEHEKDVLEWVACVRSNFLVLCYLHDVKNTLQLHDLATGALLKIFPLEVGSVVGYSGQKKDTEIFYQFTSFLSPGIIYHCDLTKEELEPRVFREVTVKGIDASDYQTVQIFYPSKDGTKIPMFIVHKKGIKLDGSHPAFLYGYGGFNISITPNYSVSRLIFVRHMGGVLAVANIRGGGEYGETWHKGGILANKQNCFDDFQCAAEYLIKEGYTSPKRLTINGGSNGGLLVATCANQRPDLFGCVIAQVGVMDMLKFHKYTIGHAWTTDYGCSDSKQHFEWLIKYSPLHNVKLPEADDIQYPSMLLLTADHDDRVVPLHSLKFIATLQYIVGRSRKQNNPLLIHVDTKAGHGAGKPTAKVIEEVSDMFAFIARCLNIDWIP

Structure (SMILES) | IC50 | other results
O=C(c1nc2ccccc2s1)[C@@H]1CCCN1C(=O)[C@@H]1Cc2ccccc2N1C(=O)CCCc1ccccc1 [Example 19, 2-[1-{1-(4-Phenylbutanoyl)indolin-2(S)-ylcarbonyl}pyrrolidin-2(S)-ylcarbonyl]benzothiazole] | 5.44 nM | 
O=C(c1nc2ccccc2s1)[C@@H]1CCCN1C(=O)[C@@H]1C[C@@H](Sc2ccccc2)CN1C(=O)OCc1ccccc1 [Example 20, 2-{1-(1-Benzyloxycarbonyl-4(R)-phenylthiopyrrolidin-2(S)-ylcarbonyl)pyrrolidin-2(S)-ylcarbonyl}benzothiazole] | 2.45 nM | 
O=C(c1nc2ccccc2s1)[C@@H]1CCCN1C(=O)[C@@H]1C[C@@H](Sc2ccccc2)CN1C(=O)CCCc1ccccc1 [Example 21, 2-[1-{1-(4-Phenylbutanoyl)-4(R)-phenylthiopyrrolidin-2(S)-ylcarbonyl}pyrrolidin-2(S)-ylcarbonyl]benzothiazole] | 1.8 nM | 
O=C(CSCc1ccccc1)C1CCCCC1C(=O)N1CCC[C@H]1C(=O)c1nc2ccccc2s1 (stereo partly drawn) [Example 22, 2-[1-(2-Benzylthioacetylcyclohexan-1-ylcarbonyl)pyrrolidin-2(S)-ylcarbonyl]benzothiazole] | 12.6 nM | 
O=C(c1cccs1)[C@@H]1CCCN1C(=O)[C@@H]1CCCN1C(=O)OCc1ccccc1 [Example 25] |  | IC50 [1]: 1380 nM
O=C(c1cccs1)[C@@H]1CCCN1C(=O)[C@@H]1CCCN1C(=O)CCCc1ccccc1 [Example 26, 2-[1-{1-(4-Phenylbutanoyl)pyrrolidin-2(S)-ylcarbonyl}pyrrolidin-2(S)-ylcarbonyl]thiophene] |  | IC50 [2]: 0.81 mg/L
Cc1nc(C(=O)[C@@H]2CCCN2C(=O)[C@@H]2CCCN2C(=O)CCCc2ccccc2)sc1C [Example 27, 4,5-Dimethyl-2-[1-{1-(4-phenylbutanoyl)pyrrolidin-2(S)-ylcarbonyl}pyrrolidin-2(S)-ylcarbonyl]thiazole] | 6.06 nM | 
O=C(c1ncc[nH]1)[C@@H]1CCCN1C(=O)[C@@H]1CCCN1C(=O)CCCc1ccccc1 [Example 28, 2-[1-{1-(4-Phenylbutanoyl)pyrrolidin-2(S)-ylcarbonyl}pyrrolidin-2(S)-ylcarbonyl]-1H-imidazole] |  | IC50 [1]: 6.24 nM
O=C(c1nc2ccccc2[nH]1)[C@@H]1CCCN1C(=O)[C@@H]1CCCN1C(=O)CCCc1ccccc1 [Example 29, 2-[1-{1-(4-Phenylbutanoyl)pyrrolidin-2(S)-ylcarbonyl}pyrrolidin-2(S)-ylcarbonyl]-1H-benzimidazole] | 3.82 nM | 
O=C(c1cccnc1)[C@@H]1CCCN1C(=O)[C@@H]1CCCN1C(=O)CCCc1ccccc1 [Example 30, 3-[1-{1-(4-Phenylbutanoyl)pyrrolidin-2(S)-ylcarbonyl}pyrrolidin-2(S)-ylcarbonyl]pyridine] | 2620 nM | 
O=C(c1cncnc1)[C@@H]1CCCN1C(=O)[C@@H]1CCCN1C(=O)CCCc1ccccc1 [Example 31, 5-[1-{1-(4-Phenylbutanoyl)pyrrolidin-2(S)-ylcarbonyl}pyrrolidin-2(S)-ylcarbonyl]pyrimidine] | 64.2 nM | 
O=C(c1ccccn1)[C@@H]1CCCN1C(=O)[C@@H]1CCCN1C(=O)CCCc1ccccc1 [Example 32, 2-[1-{1-(4-Phenylbutanoyl)pyrrolidin-2(S)-ylcarbonyl}pyrrolidin-2(S)-ylcarbonyl]pyridine] | 7.15 nM | 
O=C(c1cncs1)[C@@H]1CCCN1C(=O)[C@@H]1CCCN1C(=O)CCCc1ccccc1 [Example 33, 5-[1-{1-(4-Phenylbutanoyl)pyrrolidin-2(S)-ylcarbonyl}pyrrolidin-2(S)-ylcarbonyl]thiazole] |  | IC50 [2]: 0.275 mg/L
O=C(c1nc[nH]n1)[C@@H]1CCCN1C(=O)[C@@H]1CCCN1C(=O)CCCc1ccccc1 [Example 34, 3-[1-{1-(4-Phenylbutanoyl)pyrrolidin-2(S)-ylcarbonyl}pyrrolidin-2(S)-ylcarbonyl]1,2,4-triazole] | 6.11 nM | 
O=C(c1nc2ccccc2o1)[C@@H]1CCCN1C(=O)[C@@H]1CCCN1C(=O)CCCc1ccccc1 [Example 36, 2-[1-{1-(4-Phenylbutanoyl)pyrrolidin-2(S)-ylcarbonyl}pyrrolidin-2(S)-ylcarbonyl]benzoxazole] | 4.13 nM | 
